According to patent publication US11351178B2, “Selective HDAC6 inhibitors” (ITALFARMACO S.P.A., priority 2017, dated 2022):

Tested on: CD4 and CD8 T cells of CT-26 bearing mice
Test: Ex vivo stimulation of splenocytes with CT-26 tumor peptides, IFN-γ and TNF-α by CD4 and CD8 T cells (ELISPOT)
Assay type: in vivo, BALB/c mice
Details: splenocytes stimulated with CT-26 specific peptides, FIGS. 4 and 5
Method: Splenocytes of animal treated with Compounds 8 and 10 and the combination with anti PD-1 Ab were stimulated with CT-26 derived tumor peptides and the production of IFN-γ and TNF-α by CD4 T cells was quantified by ELISPOT.
Splenocytes of animal treated with Compound 8 and 10 and the combination with anti PD-1 Ab were stimulated with CT-26 derived tumor peptides and the production of IFN-γ and TNF-α by CD8 Tcells was quantified by ELISPOT.
Adult BALB/c mice were injected s.c. with 1×10^6 CT26 tumor cells (diluted to 100 ul with phosphate-buffered saline). One week later, mice were given daily compounds 8 and 10 p.o. at 50 mg/Kg and/or injected with anti-PD1 antibody at 10 mg/Kg. At time of sacrifice, spleens were taken to analyze ex vivo, the tumor immune response. Spleen cells were stimulated with a mixture of CT-26 tumor specific peptides recognized in the context of both MHC I and MHC II. Thus, using this ex vivo stimulation, a specific tumor response mediated by CD4 and CD8 T cells can be detected.
The results are shown in FIGS. 4 and 5 where the percentage of CD4 and CD8 T cells that produce IFN-γ and TNF-α are indicated for each treatment group.

For `O=C(NO)c1ccc(Cn2nnnc2-c2cccs2)cc1` [comp. 8, N-hydroxy-4-((5-(thiophen-2-yl)-1H-tetrazol-1-yl)methyl)benzamide], the “ex vivo tumor specific T cell immune response” value was “greater neo antigen immune response”.
`Cn1c(Sc2ccc(C(=O)NO)cc2)nnc1-c1cccs1` [comp. 10, N-hydroxy-4-((4-methyl-5-(thiophen-2-yl)-4H-1,2,4-triazol-3-yl)thio)benzamide] was tested, and the “ex vivo tumor specific T cell immune response” value was “greater neo antigen immune response”.
